Data taken from BigSolDB 2.1.

solubility (mole fraction) (in acetonitrile, 283.1 K) | solubility (mole fraction) (in acetonitrile, 293.1 K) | solubility (mole fraction) (in acetonitrile, 303.1 K) | solubility (mole fraction) (in acetonitrile, 313.1 K) | solubility (mole fraction) (in acetonitrile, 323.1 K) | solubility (mole fraction) (in ethyl acetate, 283.1 K) | solubility (mole fraction) (in ethyl acetate, 293.1 K) | solubility (mole fraction) (in ethyl acetate, 303.1 K) | solubility (mole fraction) (in ethyl acetate, 313.1 K) | solubility (mole fraction) (in ethyl acetate, 323.1 K) | solubility (mole fraction) (in methanol, 283.1 K) | solubility (mole fraction) (in methanol, 293.1 K) | solubility (mole fraction) (in methanol, 303.1 K) | solubility (mole fraction) (in methanol, 313.1 K) | solubility (mole fraction) (in methanol, 323.1 K) | solubility (mole fraction) (in water, 283.1 K) | solubility (mole fraction) (in water, 293.1 K) | solubility (mole fraction) (in water, 303.1 K) | solubility (mole fraction) (in water, 313.1 K) | solubility (mole fraction) (in water, 323.1 K) | SMILES
0.000187 | 0.000324 | 0.000599 | 0.00091 | 0.00137 | 6.77e-05 | 0.000104 | 0.000155 | 0.000218 | 0.000318 | 0.00194 | 0.00348 | 0.0052 | 0.00775 | 0.0114 | 0.00184 | 0.00227 | 0.0031 | 0.00414 | 0.00532 | Cc1c(O)c(=O)ccn1C
8.28e-05 | 0.000105 | 0.000127 | 0.000183 | 0.000292 | 5.08e-05 | 7.12e-05 | 0.000129 | 0.000175 | 0.00025 | 0.00635 | 0.00892 | 0.0132 | 0.0209 | 0.0309 | 9.7e-06 | 1.45e-05 | 2.02e-05 | 3.18e-05 | 5.09e-05 | C=CC1=C(C(=O)O)N2C(=O)[C@@H](NC(=O)/C(=N\OCC(=O)O)c3csc(N)n3)[C@H]2SC1.O.O.O
